Experimental data reported in ChEMBL document CHEMBL1145293, “Synthesis and SAR of GlyT1 inhibitors derived from a series of N-((4-(morpholine-4-carbonyl)-1-(propylsulfonyl)piperidin-4-yl)methyl)benzamides” (Bioorg Med Chem Lett, 2006).
In brackets after ≈: the same amount, converted by molar mass.

Assays:
[1] = Aqueous solubility of the compound; assay type: physicochemical
Cytochrome P450 2D6 = Cytochrome P450 2D6 (Homo sapiens, UniProt P10635); test: Inhibition of CYP2D6; assay type: ADME
[2] = Clearance in rat; assay type: ADME, organism-based; conditions: in vivo
[3] = target: T1, Sodium- and chloride-dependent glycine transporter 1 (Homo sapiens, UniProt P48067); test: Inhibition of human GlyT1
T1 sequence (P48067 whole entry): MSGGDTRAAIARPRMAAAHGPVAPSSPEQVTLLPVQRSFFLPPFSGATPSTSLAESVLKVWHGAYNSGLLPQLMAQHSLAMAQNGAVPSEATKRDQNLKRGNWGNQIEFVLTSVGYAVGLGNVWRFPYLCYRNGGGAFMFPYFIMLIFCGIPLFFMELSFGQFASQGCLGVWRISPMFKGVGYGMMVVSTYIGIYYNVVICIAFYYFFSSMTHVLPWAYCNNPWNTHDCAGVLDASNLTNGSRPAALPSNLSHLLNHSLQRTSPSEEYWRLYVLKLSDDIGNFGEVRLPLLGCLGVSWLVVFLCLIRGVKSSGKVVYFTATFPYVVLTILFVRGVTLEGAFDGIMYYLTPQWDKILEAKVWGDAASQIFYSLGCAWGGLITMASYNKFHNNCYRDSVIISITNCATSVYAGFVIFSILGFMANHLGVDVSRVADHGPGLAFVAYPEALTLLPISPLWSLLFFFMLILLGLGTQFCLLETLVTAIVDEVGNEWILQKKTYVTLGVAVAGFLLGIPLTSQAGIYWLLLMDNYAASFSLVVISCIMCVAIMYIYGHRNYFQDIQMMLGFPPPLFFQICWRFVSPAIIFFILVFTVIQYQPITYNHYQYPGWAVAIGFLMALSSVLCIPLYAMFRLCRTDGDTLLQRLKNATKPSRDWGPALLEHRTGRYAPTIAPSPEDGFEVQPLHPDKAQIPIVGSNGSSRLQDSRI

[4] = target: T2, Sodium- and chloride-dependent glycine transporter 1 (Rattus norvegicus, UniProt P28572); test: Inhibition of rat GlyT1
T2 sequence (P28572 whole entry): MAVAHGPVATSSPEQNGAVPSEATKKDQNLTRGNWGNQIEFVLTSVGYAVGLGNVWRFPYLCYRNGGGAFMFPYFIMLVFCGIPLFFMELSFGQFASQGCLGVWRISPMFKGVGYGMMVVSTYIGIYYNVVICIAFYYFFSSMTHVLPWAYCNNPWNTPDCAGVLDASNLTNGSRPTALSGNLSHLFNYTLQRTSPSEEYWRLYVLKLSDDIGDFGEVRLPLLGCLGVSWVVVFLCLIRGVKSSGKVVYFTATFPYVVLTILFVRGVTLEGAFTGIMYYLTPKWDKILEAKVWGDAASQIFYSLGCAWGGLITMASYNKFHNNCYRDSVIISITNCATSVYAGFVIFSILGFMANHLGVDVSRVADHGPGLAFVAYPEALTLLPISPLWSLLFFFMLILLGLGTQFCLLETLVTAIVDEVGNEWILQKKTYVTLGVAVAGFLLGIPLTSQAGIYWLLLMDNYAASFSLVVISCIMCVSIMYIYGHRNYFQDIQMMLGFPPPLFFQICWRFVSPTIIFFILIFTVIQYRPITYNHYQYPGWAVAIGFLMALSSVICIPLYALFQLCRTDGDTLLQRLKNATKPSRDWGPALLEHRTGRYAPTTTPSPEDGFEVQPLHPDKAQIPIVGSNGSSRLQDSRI

[5] = Partition coefficient, log P of the compound; assay type: physicochemical; conditions: octanol/water
[6] = Half life in rat; assay type: ADME, organism-based; conditions: in vivo
[7] = Apparent permeability in Caco-2 cells; assay type: ADME, cell-based; conditions: human
Caco-2 [8] = test: Ratio of permeability from basolateral to apical over apical to basolateral side of Caco-2 cell expressing mouse p-glycoprotein; assay type: ADME, cell-based; conditions: human
Caco-2 [9] = test: Ratio of permeability from basolateral to apical over apical to basolateral side of Caco-2 cell expressing human p-glycoprotein; assay type: ADME, cell-based
[10] = target: T3, Sodium- and chloride-dependent glycine transporter 2 (Homo sapiens, UniProt Q9Y345); test: Inhibition of human GlyT2
T3 sequence (Q9Y345 whole entry): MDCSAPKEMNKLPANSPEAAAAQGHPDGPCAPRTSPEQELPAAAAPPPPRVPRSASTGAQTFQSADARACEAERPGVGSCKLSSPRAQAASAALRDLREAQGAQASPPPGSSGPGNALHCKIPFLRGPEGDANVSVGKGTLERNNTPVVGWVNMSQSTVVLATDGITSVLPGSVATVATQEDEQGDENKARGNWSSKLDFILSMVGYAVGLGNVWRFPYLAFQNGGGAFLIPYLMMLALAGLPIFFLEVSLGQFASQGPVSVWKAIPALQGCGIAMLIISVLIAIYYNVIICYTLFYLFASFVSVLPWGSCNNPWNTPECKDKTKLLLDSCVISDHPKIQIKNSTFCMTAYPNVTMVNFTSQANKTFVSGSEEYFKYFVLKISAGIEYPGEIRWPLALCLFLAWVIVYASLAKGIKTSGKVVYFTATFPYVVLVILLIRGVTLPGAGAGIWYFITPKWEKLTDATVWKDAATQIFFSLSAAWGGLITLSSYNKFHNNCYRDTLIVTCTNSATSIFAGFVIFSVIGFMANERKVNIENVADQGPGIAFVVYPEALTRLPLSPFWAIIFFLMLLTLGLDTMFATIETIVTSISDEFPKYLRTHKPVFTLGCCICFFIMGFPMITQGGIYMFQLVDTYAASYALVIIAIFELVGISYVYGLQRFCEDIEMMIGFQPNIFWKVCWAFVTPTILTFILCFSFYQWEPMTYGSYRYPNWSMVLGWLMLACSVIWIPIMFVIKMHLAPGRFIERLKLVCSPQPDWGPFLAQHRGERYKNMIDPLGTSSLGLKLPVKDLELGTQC

[11] = target: T4, Sodium- and chloride-dependent taurine transporter (Homo sapiens, UniProt P31641); test: Inhibition of human TauT
T4 sequence (P31641 whole entry): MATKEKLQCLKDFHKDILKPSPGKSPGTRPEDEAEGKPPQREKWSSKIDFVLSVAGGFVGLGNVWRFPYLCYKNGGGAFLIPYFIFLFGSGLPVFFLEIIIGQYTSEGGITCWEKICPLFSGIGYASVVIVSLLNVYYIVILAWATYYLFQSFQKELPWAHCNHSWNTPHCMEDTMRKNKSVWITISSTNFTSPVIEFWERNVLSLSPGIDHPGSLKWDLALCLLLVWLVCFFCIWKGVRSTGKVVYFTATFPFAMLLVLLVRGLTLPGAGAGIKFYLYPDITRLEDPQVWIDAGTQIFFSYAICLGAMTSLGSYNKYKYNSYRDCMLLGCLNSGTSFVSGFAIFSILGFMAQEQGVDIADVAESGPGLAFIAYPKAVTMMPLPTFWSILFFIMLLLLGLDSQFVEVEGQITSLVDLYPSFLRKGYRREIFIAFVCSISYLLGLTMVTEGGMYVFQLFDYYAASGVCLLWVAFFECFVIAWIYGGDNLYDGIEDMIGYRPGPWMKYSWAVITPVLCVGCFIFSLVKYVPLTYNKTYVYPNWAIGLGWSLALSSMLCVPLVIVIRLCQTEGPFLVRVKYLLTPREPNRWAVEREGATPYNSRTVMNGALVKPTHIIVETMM

Chain of Cytochrome P450 2D6 (P10635 whole entry): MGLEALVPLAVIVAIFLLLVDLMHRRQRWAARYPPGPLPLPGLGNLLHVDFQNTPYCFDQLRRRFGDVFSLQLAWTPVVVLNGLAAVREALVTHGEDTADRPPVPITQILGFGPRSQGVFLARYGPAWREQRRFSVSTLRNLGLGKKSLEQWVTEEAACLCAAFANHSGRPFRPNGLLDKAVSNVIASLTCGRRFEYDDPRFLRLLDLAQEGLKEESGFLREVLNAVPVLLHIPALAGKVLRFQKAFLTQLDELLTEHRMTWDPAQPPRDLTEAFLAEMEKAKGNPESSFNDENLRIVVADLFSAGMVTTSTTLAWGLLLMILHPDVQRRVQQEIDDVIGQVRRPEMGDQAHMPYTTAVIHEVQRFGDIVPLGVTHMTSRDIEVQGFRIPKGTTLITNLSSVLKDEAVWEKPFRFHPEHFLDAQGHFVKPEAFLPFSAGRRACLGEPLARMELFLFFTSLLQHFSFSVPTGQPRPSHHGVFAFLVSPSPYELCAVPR

| SMILES | solubility [1] [mg/mL] | Activity (Cytochrome P450 2D6) | clearance [2] [L/h/kg] | IC50 [3] [µM] | IC50 [4] [µM] | logP [5] | half-life [6] [min] | Papp [7] [nm/s] | Ratio (Caco-2 [8]) | Ratio (Caco-2 [9]) | IC50 [10] [µM] | IC50 [11] [µM] |
| --- | --- | --- | --- | --- | --- | --- | --- | --- | --- | --- | --- | --- |
| CCCS(=O)(=O)N1CCC(CNC(=O)c2ccc(F)cc2Cl)(C(=O)N2CCOCC2)CC1 | 10 (≈ 20.4 mM) | Not Active | 1.08 | 0.0126 | 0.0101 | < 1.4 | 18 | > 220 | 8.9 | 10.6 | > 30 | > 30 |
| CCCS(=O)(=O)N1CCC(CNC(=O)c2c(F)ccc(Cl)c2F)(C(=O)N2CCOCC2)CC1 | 10 (≈ 19.7 mM) | Not Active | 1.08 | 0.0084 | 0.0197 | < 1.4 | 18 | > 220 | 8.9 | 10.6 | > 30 | > 30 |
| CCCS(=O)(=O)N1CCC(CNC(=O)c2ccc(Cl)cc2Cl)(C(=O)N2CCOCC2)CC1 | 18 (≈ 35.5 mM) | Not Active | 1.23 | 0.0024 | 0.0032 | 1.4 | 22.2 | 236 | 11.4 | 17.9 | > 30 | > 30 |
| CCCS(=O)(=O)N1CCC(CNC(=O)c2c(F)cccc2Cl)(C(=O)N2CCOCC2)CC1 | 10 (≈ 20.4 mM) | Not Active | 1.08 | 0.0125 | 0.0221 | < 1.4 | 18 | > 220 | 8.9 | 10.6 | > 30 | > 30 |
| CCCS(=O)(=O)N1CCC(CNC(=O)c2ccccc2Cl)(C(=O)N2CCOCC2)CC1 | 10 (≈ 21.2 mM) | Not Active | 1.08 | 0.0097 | 0.0183 | < 1.4 | 18 | > 220 | 8.9 | 10.6 | > 30 | > 30 |
| CCCS(=O)(=O)N1CCC(CNC(=O)c2cc(F)c(Cl)cc2Cl)(C(=O)N2CCOCC2)CC1 | 10 (≈ 19.1 mM) | Not Active | 1.08 | 0.0063 | 0.0074 | < 1.4 | 18 | > 220 | 8.9 | 10.6 | > 30 | > 30 |
